Data set [1] addresses Polymerase basic protein 2 (Influenza A virus (strain A/Puerto Rico/8/1934 H1N1), UniProt P03428). Briefly: Binding affinity to CM5 immobilized N-terminal His/Sumo tagged Influenza A virus (A/WSN/1933(H1N1)) PB2 CBD (318 to 486 residues) expressed in Escherichia coli by surface plasmon resonance assay.
For data set [2], the system named is Influenza A virus (A/Puerto Rico/8/1934(H1N1)). Briefly: Antiviral activity against Influenza A virus (A/Puerto Rico 8/1934 (H1N1)) infected in MDCK cells assessed as inhibition of virus-induced cytopathic effect measured after 72 hrs by CellTiter-Glo viability assay. In kind it is functional, organism-based. (Protection from cytopathic effect is a common read-out in antiviral testing.)

Data set [3] is described as follows: Cytotoxicity against MDCK cells assessed as reduction in cell viability measured after 72 hrs by CCK8 analysis. In kind it is cell-based, Canis lupus familiaris. To be noted: dog.
The nature of data set [4]: Antiviral activity against Influenza A virus (A/Hong Kong/1-8/1968(H3N2)) infected in MDCK cells assessed as inhibition of virus-induced cytopathic effect measured after 72 hrs by CellTiter-Glo viability assay. In kind it is functional, cell-based.

Drawing on ChEMBL document CHEMBL5053554, “Identification of novel influenza polymerase PB2 inhibitors using virtual screening approach and molecular dynamics simulation analysis of active compounds” (Bioorg Med Chem, 2021), this text covers Kd, EC50 and CC50 for eight compounds.

For orientation: Kd means the constant that tells how readily two partners part at equilibrium. A word on the EC50: it is the concentration needed to bring the measured effect to its halfway point. A word on the CC50: it is the concentration that lowers cell viability or growth by half.

Chain of Polymerase basic protein 2 (P03428 whole entry, the tested form may be a part): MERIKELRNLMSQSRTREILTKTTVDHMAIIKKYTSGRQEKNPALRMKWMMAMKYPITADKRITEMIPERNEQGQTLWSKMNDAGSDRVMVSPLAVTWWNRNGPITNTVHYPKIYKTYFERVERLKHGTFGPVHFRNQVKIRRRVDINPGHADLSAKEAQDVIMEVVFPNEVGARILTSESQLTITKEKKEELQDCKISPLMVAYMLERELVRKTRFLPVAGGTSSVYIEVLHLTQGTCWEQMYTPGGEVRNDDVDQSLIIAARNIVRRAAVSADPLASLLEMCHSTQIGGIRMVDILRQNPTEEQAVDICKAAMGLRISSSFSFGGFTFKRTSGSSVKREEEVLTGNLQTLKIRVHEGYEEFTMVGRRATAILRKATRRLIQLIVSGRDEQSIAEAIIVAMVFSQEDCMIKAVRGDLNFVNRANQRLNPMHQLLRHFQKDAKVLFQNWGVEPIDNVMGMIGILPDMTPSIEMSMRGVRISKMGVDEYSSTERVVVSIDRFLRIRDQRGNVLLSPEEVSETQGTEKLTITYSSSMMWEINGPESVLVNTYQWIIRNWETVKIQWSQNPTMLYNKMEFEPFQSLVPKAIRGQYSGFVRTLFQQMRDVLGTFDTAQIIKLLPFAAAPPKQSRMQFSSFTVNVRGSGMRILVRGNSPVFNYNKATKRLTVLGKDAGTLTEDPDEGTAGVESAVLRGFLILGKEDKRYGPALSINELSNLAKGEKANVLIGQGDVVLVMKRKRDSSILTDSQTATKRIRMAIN

On to `O=c1[nH]c2ccc(NCc3ccc(Cl)c(Cl)c3)cc2[nH]1`, for which the Kd in data set [1] was found to be 6400 nM. In addition, the figures for the EC50 in data set [2] and in data set [4] were 21.7 µM and 7.44 µM, respectively. In data set [3], the CC50 at 72 h was over 100 µM.

In the case of `O=C(O)CSc1cc(O)c2c(c1O)C(=O)c1ccccc1C2=O`, binding in data set [1] was characterised by a dissociation constant (Kd) of 580 nM. For the same compound, the EC50 turned out to be 5.81 µM in data set [2] and 7.55 µM in data set [4]. Moreover, the CC50 at 72 h in data set [3] stood at 49.7 µM.

`O=C1c2ccccc2C(=O)c2cc(OC[C@H](O)Cn3cnc4ccccc43)ccc21` came in with a Kd in data set [1] of 2200 nM. Moreover, the EC50 amounted to 33.2 µM in data set [2] and 25.2 µM in data set [4]. Moreover, in data set [3], the CC50 at 72 h was over 100 µM.

As for `O=C(O)[C@H]1C2CCC(CC2)[C@@H]1Nc1nc(-c2c[nH]c3ncc(F)cc23)ncc1F` [PIMODIVIR], in data set [1], the equilibrium dissociation constant (Kd) is 54 nM. In addition, the EC50 was under 0.005 µM in data set [2] and 1.84 µM in data set [4]. Further, the 50% cytotoxic concentration (CC50) at 72 h in data set [3] is over 100 µM.

`O=C(O)CSc1nc(-c2ccccc2)nc2c1oc1ccccc12` had a Kd in data set [1] of 250 nM. Also, the EC50 is 22.4 µM in data set [2] and 27 µM in data set [4]. In addition, in data set [3], the CC50 at 72 h was over 100 µM.

With `O=C(c1cc(=O)[nH]c2ccccc12)N1CCc2[nH]c3ccccc3c2C1`, the Kd in data set [1] is 1600 nM. Besides, the figures for the EC50 in data set [2] and in data set [4] were 42.8 µM and 41.5 µM, respectively. In addition, the half-maximal cytotoxic concentration (CC50) at 72 h in data set [3] is over 100 µM.

Regarding `Cc1c(O[C@H](C(=O)O)c2ccccc2)ccc2c1oc(=O)c1ccccc12`, the Kd in data set [1] came out at 110 nM. Moreover, the EC50 in data set [2] worked out at 26.5 µM; in data set [4] it was 15.1 µM. Besides, the half-maximal cytotoxic concentration (CC50) at 72 h in data set [3] was over 100 µM.

With `CCC(CC)O[C@@H]1C=C(C(=O)O)C[C@H](N)[C@H]1NC(C)=O` [OSELTAMIVIR CARBOXYLATE], the EC50 in data set [2] worked out at 3.07 µM; in data set [4] it was 0.03 µM. The CC50 at 72 h in data set [3] was over 100 µM.
